The results in this text go back to patent US8754234B2, “Chiral 2-(benzylsulfinyl)thiazole derivatives and 2-[(1H-pyrazol-4-ylmethyl)sulfinyl]thiazole derivatives, processes for their preparation and their use as herbicides and plant growth regulators” (Bayer Cropscience AG, priority 2007, dated 2014).

Common to all, as to type: in vivo
Experiment [1] relates to Avena fatua, Stellaria media, Echinochloa crus galli, Lolium multiflorum, Setaria viridis, Abutilon theophrasti, Amaranthus retroflexus, Viola tricolor …. As to the kind of experiment: Pre-emergence herbicidal effect, harmful plants. The note with it: pre-emergence method, application rate of 0.32 kg and less of active substance per hectare. The text has this:
(§1) Seeds of monocotyledonous or dicotyledonous weed plants or crop plants are placed in sandy loam in wood-fiber pots and covered with soil. The compounds according to the invention, formulated in the form of wettable powders (WP), are then applied as aqueous suspension at a water application rate of 600 l/ha (converted) with the addition of 0.2% of wetting agent to the surface of the covering soil. After the treatment, the pots are placed in a greenhouse and kept under good growth conditions for the test plants. After about 3 weeks, the effect of the preparations is scored visually in comparison with untreated controls (herbicidal effect in percent (%): 100% activity=the plants have died, 0% activity=like control plants).

For experiment [2], the system named is Avena fatua, Echinochloa crus galli, Lolium multiflorum, Setaria viridis and Alopecurus myosuroides. As to the kind of experiment: Post-emergence herbicidal effect, harmful plants. The settings on record: post-emergence method, application rate of 0.32 kg and less of active substance per hectare. Here is the method:
(§2) Seeds of monocotyledonous and dicotyledonous weed and crop plants are placed in sandy loam in wood fibre pots, covered with soil and cultivated in a greenhouse under good growth conditions. 2 to 3 weeks after sowing, the test plants are treated at the one-leaf stage. The compounds according to the invention, formulated in the form of wettable powders (WP), are then applied as aqueous suspension at a water application rate of 600 l/ha (converted) with the addition of 0.2% of wetting agent to the green parts of the plants. After the test plants have been kept in the greenhouse under optimum growth conditions for about 3 weeks, the activity of the preparations is rated visually in comparison to untreated controls (herbicidal activity in percent (%): 100% activity=the plants have died, 0% activity=like control plants).

A further experiment relates to Stellaria media. As to the kind of experiment: Post-emergence herbicidal effect, Stellaria media. The note with it: after about 3 weeks. Here is the method:
as §2

In a further experiment the test system is Zea mays (corn). As to the kind of experiment: Post-emergence crop plant compatibility, corn. The note with it: after about 3 weeks. As for the experimental part:
as §2

For a further experiment, the system named is Polygunum convolvulus. As to the kind of experiment: Post-emergence herbicidal effect, Polygunum convolvulus. The settings on record: after about 3 weeks. Here is the method: as §2
Experiment [3] deals with Setaria viridis (green foxtail). In words: Post-emergence herbicidal effect, green foxtail. The settings on record: after about 3 weeks. As for the experimental part:
as §2

Another experiment relates to Avena fatua. In words: Post-emergence herbicidal effect, Avena fatua. The settings on record: after about 3 weeks. As for the experimental part:
as §2

In experiment [4] the test system is Lolium multiflorum (Italian ryegrass). As to the kind of experiment: Post-emergence herbicidal effect, Italian ryegrass. The note with it: after about 3 weeks. Here is the method:
as §2

In experiment [5] the test system is Echinochloa crus-galli (barnyard grass). In words: Pre-emergence herbicidal effect, barnyard grass. The settings on record: after about 3 weeks.
From the text: as §1

The test system of experiment [6] is Triticum aestivum (summer wheat). As to the kind of experiment: Pre-emergence crop plant compatibility, summer wheat. The settings on record: scored visually after about 3 weeks.
From the text: as §1

Experiment [7] relates to Viola tricolor (wild pansy). As to the kind of experiment: Pre-emergence herbicidal effect, wild pansy. The note with it: after about 3 weeks.
From the text: as §1

Experiment [8] has as its system Lolium multiflorum (Italian ryegrass). In words: Pre-emergence herbicidal effect, Italian ryegrass. The settings on record: after about 3 weeks.
From the text: as §1

Experiment [9] deals with Setaria viridis (green foxtail). As to the kind of experiment: Pre-emergence herbicidal effect, green foxtail. The note with it: after about 3 weeks.
From the text: as §1

The test system of experiment [10] is Brassica napus (winter rape). In words: Pre-emergence crop plant compatibility, winter rape. The settings on record: after about 3 weeks.
From the text: as §1

Experiment [11] concerns Alopecurus myosuroides (black-grass). In words: Pre-emergence herbicidal effect, black-grass. The note with it: after about 3 weeks.
From the text: as §1

Setting [12] is: 20 g of active compound/ha, formula (Ia) table.
[13] abbreviates: 80 g of active compound/ha, formula (Ia) table.
The mark [14] stands for this setting: 20 g of active compound/ha, formula (Ib) table.
[15] abbreviates: 80 g of active compound/ha, formula (Ib) table.

As for `Cn1nc(C(F)(F)F)c(C[S@+]([O-])c2ncc(I)s2)c1OC(F)F` [Compound 2719], the “herbicidal activity against harmful plants” value in experiment [1] and in experiment [2] was “very good herbicidal activity” in each case.
For `Cn1nc(C(F)(F)F)c(C[S@+]([O-])c2ncc(Br)s2)c1OCC(F)(F)F` [Compound 2640], the “herbicidal activity in percent, STEME” value in the experiment with Stellaria media (20 g of active compound/ha) was 10%; with Stellaria media (80 g of active compound/ha), 90%. In addition, the “herbicidal activity in percent, ZEAMX” value in the experiment on Zea mays (corn) (20 g of active compound/ha) and in the experiment with Zea mays (corn) (80 g of active compound/ha) was 0% each time. For the same compound, the “herbicidal activity against harmful plants” value in [1] and in experiment [2] was “very good herbicidal activity” throughout. Further, the “herbicidal activity in percent, POLCO” value came to 20% with Polygunum convolvulus (20 g of active compound/ha) and 100% in the experiment on Polygunum convolvulus (80 g of active compound/ha). The “herbicidal activity in percent, SETVI” value in experiment [3] (20 g of active compound/ha) and in experiment [3] (80 g of active compound/ha) was 100% each time. The “herbicidal activity in percent, AVEFA” value in the experiment with Avena fatua (20 g of active compound/ha) is recorded as 20%; in the experiment with Avena fatua (80 g of active compound/ha), 90%. Besides, the “herbicidal activity in percent, LOLMU” value in experiment [4] (20 g of active compound/ha) was found to be 60%; in experiment [4] (80 g of active compound/ha), 100%.
On to `[O-][S@+](Cc1c(Cl)cccc1Cl)c1ncc(Cl)s1` [Compound 1375], for which the “herbicidal effect in percent, ECHCG” value worked out at 0% in experiment [5] (20 g of active compound/ha) and 80% in experiment [5] (80 g of active compound/ha). In addition, the “herbicidal effect in percent, TRZAS” value in experiment [6] (20 g of active compound/ha) and in experiment [6] (80 g of active compound/ha) was 0% in each case. Moreover, the “herbicidal activity against harmful plants” value in [1] and in experiment [2] was “very good herbicidal activity” in each case. Moreover, the “herbicidal effect in percent, VIOTR” value in experiment [7] (20 g of active compound/ha) turned out to be 60%; in experiment [7] (80 g of active compound/ha), 80%. Also, the “herbicidal effect in percent, LOLMU” value is 0% in experiment [8] (setting [12]) and 60% in experiment [8] (setting [13]). Besides, the “herbicidal effect in percent, SETVI” value in experiment [9] (setting [12]) came out at 0%; in experiment [9] (setting [13]), 20%.
Consider `[O-][S@@+](Cc1c(Cl)cccc1Cl)c1ncc(Cl)s1` [Compound 185], for which the “herbicidal effect in percent, ECHCG” value in experiment [5] (20 g of active compound/ha) was found to be 90%; in experiment [5] (80 g of active compound/ha), 100%. Moreover, the “herbicidal effect in percent, TRZAS” value in experiment [6] (20 g of active compound/ha) was determined as 0%; in experiment [6] (80 g of active compound/ha), 10%. Moreover, the “herbicidal activity against harmful plants” value in experiment [1] and in [2] was “very good herbicidal activity” each time. Besides, the “herbicidal effect in percent, VIOTR” value in experiment [7] (20 g of active compound/ha) is 60%; in experiment [7] (80 g of active compound/ha) it was 70%. In addition, the figures for the “herbicidal effect in percent, LOLMU” value in experiment [8] (setting [12]) and in [8] (setting [13]) were 70% and 90%, respectively. For the same compound, the entries for the “herbicidal effect in percent, SETVI” value in experiment [9] (setting [12]) and in [9] (setting [13]) were 70% and 100%, respectively.
Consider `Cn1nc(C(F)(F)F)c(C[S@+]([O-])c2ncc(Cl)s2)c1OC(F)F` [Compound 2555], for which the “herbicidal activity against harmful plants” value in experiment [1] and in [2] was “very good herbicidal activity” throughout.
With `Cn1nc(C(F)(F)F)c(C[S@@+]([O-])c2ncc(Cl)s2)c1OC(F)F` [Compound 3643], the “herbicidal activity against harmful plants” value in experiment [1] and in experiment [2] was “very good herbicidal activity” throughout.
For `Cn1nc(C(F)(F)F)c(C[S@@+]([O-])c2ncc(Br)s2)c1OC(F)F` [Compound 3725, 5-bromo-2-[(R)-{[5-(difluoromethoxy)-1-methyl-3-(trifluoromethyl)-1H-pyrazol-4-yl]methyl}sulfinyl]-1,3-thiazole], the “herbicidal effect in percent, BRSNW” value in experiment [10] (20 g of active compound/ha) and in [10] (80 g of active compound/ha) was 0% each time. Besides, the “herbicidal activity against harmful plants” value in experiment [1] and in [2] was “very good herbicidal activity” throughout. Moreover, the “herbicidal effect in percent, LOLMU” value in [8] (setting [14]) and in experiment [8] (setting [15]) was 0% in each case. Besides, the “herbicidal effect in percent, SETVI” value in experiment [9] (setting [14]) and in [9] (setting [15]) was 0% throughout. Also, the “herbicidal effect in percent, ALOMY” value in experiment [11] (20 g of active compound/ha) came out at 0%; in experiment [11] (80 g of active compound/ha) it was 20%.
For the compound `[O-][S@+](Cc1c(F)cccc1F)c1ncc(Br)s1` [Compound 1449, 5-bromo-2-[(R)-(2,6-difluorobenzyl)sulfinyl]-1,3-thiazole], the “herbicidal activity against harmful plants” value in experiment [1] and in experiment [2] was “very good herbicidal activity” throughout.
Turning to `Cn1nc(C(F)(F)F)c(C[S@+]([O-])c2ncc(Br)s2)c1OC(F)F` [Compound 2637, 5-Bromo-2-[(S)-{[5-(difluoromethoxy)-1-methyl-3-(trifluoromethyl)-1H-pyrazol-4-yl]methyl}sulfinyl]-1,3-thiazole], the “herbicidal effect in percent, BRSNW” value in experiment [10] (20 g of active compound/ha) and in [10] (80 g of active compound/ha) was 0% each time. The “herbicidal activity against harmful plants” value in experiment [1] and in [2] was “very good herbicidal activity” each time. Also, the “herbicidal effect in percent, LOLMU” value in experiment [8] (setting [14]) worked out at 10%; in [8] (setting [15]), 100%. Besides, the “herbicidal effect in percent, SETVI” value amounted to 80% in experiment [9] (setting [14]) and 90% in experiment [9] (setting [15]). The “herbicidal effect in percent, ALOMY” value in [11] (20 g of active compound/ha) is on record as 60%; in experiment [11] (80 g of active compound/ha) it was 90%.
Take `Cn1nc(C(F)(F)F)c(C[S@@+]([O-])c2ncc(Br)s2)c1Cl` [Compound 3720, 5-bromo-2-[(R)-{[5-chloro-1-methyl-3-(trifluoromethyl)-1H-pyrazol-4-yl]methyl}sulfinyl]-1,3-thiazole]: the “herbicidal activity against harmful plants” value in experiment [1] and in experiment [2] was “very good herbicidal activity” each time.
For `[O-][S@@+](Cc1c(F)cccc1F)c1ncc(Br)s1` [Compound 259, 5-Bromo-2-[(S)-(2,6-difluorobenzyl)sulfinyl]-1,3-thiazole], the “herbicidal activity against harmful plants” value in [1] and in experiment [2] was “very good herbicidal activity” throughout.
On to `Cn1nc(C(F)(F)F)c(C[S+]([O-])c2ncc(Br)s2)c1OC(F)F` (racemic) [Racemate of 2637 (S config.) and 3725 (R config.), 5-bromo-2-({[5-(difluoromethoxy)-1-methyl-3-(trifluoromethyl)-1H-pyrazol-4-yl]methyl}sulfinyl)-1,3-thiazole], for which the “herbicidal effect in percent, BRSNW” value in [10] (20 g of active compound/ha) and in experiment [10] (80 g of active compound/ha) was 0% each time. Besides, the “herbicidal effect in percent, LOLMU” value was 0% in experiment [8] (setting [14]) and 80% in experiment [8] (setting [15]). Also, the “herbicidal effect in percent, SETVI” value amounted to 0% in experiment [9] (setting [14]) and 80% in experiment [9] (setting [15]). Moreover, the “herbicidal effect in percent, ALOMY” value in [11] (20 g of active compound/ha) turned out to be 30%; in experiment [11] (80 g of active compound/ha) it was 90%.
For `[O-][S@+](Cc1c(Cl)cccc1Cl)c1ncc(Br)s1` [Compound 1460], the “herbicidal activity against harmful plants” value in experiment [1] is listed as “very good herbicidal activity”.
As to `[O-][S@@+](Cc1c(Cl)cccc1Cl)c1ncc(Br)s1` [Compound 270], the “herbicidal activity against harmful plants” value in [1] and in experiment [2] was “very good herbicidal activity” in each case.
For the compound `Cn1nc(C(F)(F)F)c(C[S@+]([O-])c2ncc(Br)s2)c1Cl` [Compound 2632, 5-Bromo-2-[(S)-{[5-chloro-1-methyl-3-(trifluoromethyl)-1H-pyrazol-4-yl]methyl}sulfinyl]-1,3-thiazole], the “herbicidal activity against harmful plants” value in experiment [1] and in experiment [2] was “very good herbicidal activity” throughout.
